Data: patent publication US7199157B2, “Use of treprostinil to improve kidney functions” (United Therapeutics Corporation, priority 2003, dated 2007)

Legend:
[1] = system: patients with class III or class IV heart failure; conditions: cited from earlier work
[2] = system: human alveolar macrophages; conditions: cited from earlier work
[3] = system: human pulmonary arterial smooth muscle cells; conditions: cited from earlier work
[4] = system: patients suffering from poor kidney function; assay: Administration of Treprostinil to humans suffering from kidney malfunction/failure (chronic continuous subcutaneous infusion)
Method: The target dose is determined by titration in patients for a clinical effect. The medication is delivered by a small pump that is connected to a catheter placed under the skin. In this manner, increasing dosages of Treprostinil are administered to patients by chronic continuous subcutaneous infusion. […] An example of one target dose is 10 ng/kg/min.

In the case of `CCCCC[C@H](O)CC[C@@H]1[C@H]2Cc3cccc(OCC(=O)[O-])c3C[C@H]2C[C@H]1O.[Na+]` [Treprostinil], the vasodilator effects [1] is given as “vasodilator effects”, the “inflammatory cytokine (tumor necrosis factor-α, interleukin-1β, interleukin-6, granulocyte macrophage colony-stimulating factor) secretion and gene expression” value [2] is given as “inhibits” and the “proliferation of human pulmonary arterial smooth muscle cells” value [3] is given as “inhibits proliferation”. For the same compound, the urine production ([4]; at least two patients with poor kidney function, also on dialysis, treatment over the course of several weeks) was “improved urine production” and the common side effects ([4]; at peak dose, continuous subcutaneous infusion) was “headache and nausea”.
